# Assay results reported in ChEMBL document CHEMBL1201862, “PubChem BioAssay data set” (2004).
# Activity calls are given as the source filed them.
# Columns and labels:
# Large T antigen = Large T antigen (Simian virus 40, UniProt P03070); assay type: functional, Betapolyomavirus macacae;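 also: Confirmatory-stage PubChem screen for compounds that inhibit SV40 T antigen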
# Coagulation factor XII = target: T1, Coagulation factor XII (Homo sapiens, UniProt P00748); assay type: functional;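 also: activated factor XIIa alpha cleaving a fluorogenic AMC peptide substrate; inhibitor potency from loss of enzyme activity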
# T1 sequence (P00748 whole entry): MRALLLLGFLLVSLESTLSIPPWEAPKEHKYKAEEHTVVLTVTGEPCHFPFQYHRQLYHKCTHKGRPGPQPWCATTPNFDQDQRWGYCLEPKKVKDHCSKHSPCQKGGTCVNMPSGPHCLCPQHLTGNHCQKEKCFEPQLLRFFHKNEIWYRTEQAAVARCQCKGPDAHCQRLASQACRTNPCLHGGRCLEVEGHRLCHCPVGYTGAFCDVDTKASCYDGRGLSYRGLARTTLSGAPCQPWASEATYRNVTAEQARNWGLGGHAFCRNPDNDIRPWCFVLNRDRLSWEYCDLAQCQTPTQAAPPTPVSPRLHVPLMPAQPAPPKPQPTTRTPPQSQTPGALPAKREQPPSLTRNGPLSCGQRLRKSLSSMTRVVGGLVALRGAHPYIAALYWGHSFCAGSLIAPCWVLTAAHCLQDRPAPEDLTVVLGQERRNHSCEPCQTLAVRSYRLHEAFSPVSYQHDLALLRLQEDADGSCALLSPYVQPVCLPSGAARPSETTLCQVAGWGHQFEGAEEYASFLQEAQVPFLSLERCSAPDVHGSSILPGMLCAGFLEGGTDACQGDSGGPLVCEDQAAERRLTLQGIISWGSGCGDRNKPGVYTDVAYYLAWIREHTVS
# [1] = target: T2, Zinc finger protein mex-5 (Caenorhabditis elegans, UniProt Q9XUB2); assay: MEX-5/TCR-2 RNA interaction inhibitors, dose response, biochemical, C. elegans, fluorescence polarization (AID 1960)
# T2 sequence (Q9XUB2 whole entry): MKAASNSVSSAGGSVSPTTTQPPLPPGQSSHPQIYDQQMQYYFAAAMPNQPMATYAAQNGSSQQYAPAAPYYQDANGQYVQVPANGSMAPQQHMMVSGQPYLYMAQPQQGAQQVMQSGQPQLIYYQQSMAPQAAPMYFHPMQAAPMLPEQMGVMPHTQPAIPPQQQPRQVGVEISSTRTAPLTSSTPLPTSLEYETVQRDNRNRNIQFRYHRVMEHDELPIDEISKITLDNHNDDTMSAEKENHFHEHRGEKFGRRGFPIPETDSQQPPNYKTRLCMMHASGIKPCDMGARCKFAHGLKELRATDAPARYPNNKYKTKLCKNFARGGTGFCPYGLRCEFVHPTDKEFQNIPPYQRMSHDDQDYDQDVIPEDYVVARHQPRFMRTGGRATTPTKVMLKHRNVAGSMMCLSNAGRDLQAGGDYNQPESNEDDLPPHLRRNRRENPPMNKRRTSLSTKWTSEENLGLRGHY
# [2] = target: T3, RNA-binding protein pos-1 (Caenorhabditis elegans, UniProt G5EF15); assay: inhibitors of POS-1/mex-3 RNA binding, dose response, biochemical, fluorescence polarization (AID 1964);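 also: purified POS-1 fused to maltose binding protein made in E. coli; potency of compounds blocking POS-1 binding to fluorescent RNA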
# T3 sequence (G5EF15 whole entry): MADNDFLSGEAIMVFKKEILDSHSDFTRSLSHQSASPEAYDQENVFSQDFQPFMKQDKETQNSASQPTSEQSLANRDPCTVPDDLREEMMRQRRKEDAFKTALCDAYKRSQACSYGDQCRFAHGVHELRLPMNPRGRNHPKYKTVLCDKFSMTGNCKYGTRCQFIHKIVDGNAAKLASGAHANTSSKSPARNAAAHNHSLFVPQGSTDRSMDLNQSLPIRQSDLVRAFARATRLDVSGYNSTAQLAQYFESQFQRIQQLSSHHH
# [3] = target: T4, Polyadenylate-binding protein 1 (Homo sapiens, UniProt P11940); assay: PABP1 MLLE–PAM2 interaction inhibitors, dose response, miRNA deadenylation inhibitor project, biochemical, fluorescence polarization, Cy5-PAM2 peptide, secondary (AID 602260); assay type: functional; conditions: read-out: IC50_Mean
# [4] = target: T4, Polyadenylate-binding protein 1; assay: PABP1 MLLE–PAM2 binding inhibitor potency, dose response, biochemical, fluorescence polarization, FITC-PAM2 peptide (AID 602259); assay type: functional; conditions: read-out: IC50_Mean
# HEK293 = assay: inhibitors of LMP1-driven NF-kB reporter, dose response, cell-based, HEK293, luciferase, cherry-pick (AID 588343); assay type: functional; conditions: Homo sapiens
# [5] = target: Luciferin 4-monooxygenase (Photinus pyralis, UniProt P08659); assay: firefly luciferase enzyme inhibitors, dose response, biochemical, luminescence (AID 1891)
# [6] = Luminescence Cell-Based Dose Confirmation HTS to Identify Inhibitors of Platelet Dense Granule Release. [Related pubchem assays: 1663 (Primary HTS), 1678 (Summary of Project)]; assay type: functional
# H9c2 = assay: cells; assay type: functional, cell-based; conditions: Rattus norvegicus, H9c2, Myocardium;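 also: confirmatory concentration-response retest of ultra-high-throughput screening hits for modulation of myocardial damage; cell death induced by hydrogen peroxide oxidative stress; compound pretreatment for 60 min then peroxide exposure for 2 h; potency is for protecting the cells against peroxide damage rather than for killing them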
# [7] = target: FAD-linked sulfhydryl oxidase ALR (Homo sapiens, UniProt P55789); assay: inhibitors of human ALR sulfhydryl oxidase, dose response, biochemical, H2O2 detection, luminescence, cherry-pick (AID 493248)
# Cytochrome P450 2D6 = Cytochrome P450 2D6 (Homo sapiens, UniProt P10635);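 also: CYP2D6 member of a cytochrome P450 panel assay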
# [8] = target: Induced myeloid leukemia cell differentiation protein Mcl-1 (Homo sapiens, UniProt Q07820); assay type: functional
# INS1 = assay: beta cell apoptosis inhibitors, cytokine rescue, dose response, luminescence, retest (AID 449756); assay type: functional, cell-based; conditions: Rattus norvegicus;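 also: cell death triggered by IL-1 beta plus TNF-alpha plus IFN-gamma mixture; protective hits raise ATP signal compared with cytokine alone wells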
# [9] = target: T5, Rac GTPase-activating protein 1 (Homo sapiens, UniProt Q9H0H5); assay: MgcRacGAP GTPase-activating activity inhibitors, confirmation, biochemical, ADP Hunter fluorescence, primary and confirmatory (AID 624330); assay type: functional
# T5 sequence (Q9H0H5 whole entry): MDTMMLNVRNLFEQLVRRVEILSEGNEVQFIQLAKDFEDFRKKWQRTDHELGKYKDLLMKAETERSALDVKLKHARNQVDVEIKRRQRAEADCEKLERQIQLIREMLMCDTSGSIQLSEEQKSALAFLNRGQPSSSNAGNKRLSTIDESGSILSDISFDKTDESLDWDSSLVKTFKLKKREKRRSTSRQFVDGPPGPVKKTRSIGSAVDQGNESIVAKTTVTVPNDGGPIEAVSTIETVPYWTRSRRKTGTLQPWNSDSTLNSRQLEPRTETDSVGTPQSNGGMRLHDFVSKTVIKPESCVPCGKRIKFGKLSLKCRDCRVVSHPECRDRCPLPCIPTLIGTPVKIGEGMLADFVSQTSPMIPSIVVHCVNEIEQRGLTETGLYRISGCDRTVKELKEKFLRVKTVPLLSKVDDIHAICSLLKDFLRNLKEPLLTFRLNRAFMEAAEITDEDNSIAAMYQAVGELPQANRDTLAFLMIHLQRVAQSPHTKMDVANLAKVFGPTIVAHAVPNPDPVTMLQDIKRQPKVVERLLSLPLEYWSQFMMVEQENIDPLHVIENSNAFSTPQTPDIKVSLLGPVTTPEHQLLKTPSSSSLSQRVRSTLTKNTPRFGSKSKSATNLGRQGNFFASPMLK
# [10] = target: T6, Heat shock factor protein 1 (Mus musculus, UniProt P38532); assay: HSF1 potentiators in luciferase reporter cells, confirmation, cell-based, NIH3T3, luminescence, dose retest (AID 435004); assay type: functional;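 also: stress induced by proteasome inhibitor MG132 added 30 min after compound; luciferase reporter driven by HSF1 response element in NIH3T3 cells; actives raise luminescence as potentiators of the MG132 stress response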
# T6 sequence (P38532 whole entry): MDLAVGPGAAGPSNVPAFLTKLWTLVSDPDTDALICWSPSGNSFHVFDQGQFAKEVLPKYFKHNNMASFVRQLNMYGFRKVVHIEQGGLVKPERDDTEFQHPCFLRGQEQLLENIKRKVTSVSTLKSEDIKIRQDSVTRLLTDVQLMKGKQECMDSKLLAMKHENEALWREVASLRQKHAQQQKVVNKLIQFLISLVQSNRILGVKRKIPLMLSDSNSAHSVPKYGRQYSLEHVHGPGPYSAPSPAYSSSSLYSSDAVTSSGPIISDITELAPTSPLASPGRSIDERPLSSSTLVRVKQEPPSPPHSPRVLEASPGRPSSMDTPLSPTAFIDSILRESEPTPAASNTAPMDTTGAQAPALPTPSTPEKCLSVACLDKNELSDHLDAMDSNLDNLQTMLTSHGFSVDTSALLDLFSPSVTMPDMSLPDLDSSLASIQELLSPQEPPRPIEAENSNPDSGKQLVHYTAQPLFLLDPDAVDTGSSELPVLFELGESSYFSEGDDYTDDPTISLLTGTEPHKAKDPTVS
# Chain of Large T antigen (P03070 whole entry): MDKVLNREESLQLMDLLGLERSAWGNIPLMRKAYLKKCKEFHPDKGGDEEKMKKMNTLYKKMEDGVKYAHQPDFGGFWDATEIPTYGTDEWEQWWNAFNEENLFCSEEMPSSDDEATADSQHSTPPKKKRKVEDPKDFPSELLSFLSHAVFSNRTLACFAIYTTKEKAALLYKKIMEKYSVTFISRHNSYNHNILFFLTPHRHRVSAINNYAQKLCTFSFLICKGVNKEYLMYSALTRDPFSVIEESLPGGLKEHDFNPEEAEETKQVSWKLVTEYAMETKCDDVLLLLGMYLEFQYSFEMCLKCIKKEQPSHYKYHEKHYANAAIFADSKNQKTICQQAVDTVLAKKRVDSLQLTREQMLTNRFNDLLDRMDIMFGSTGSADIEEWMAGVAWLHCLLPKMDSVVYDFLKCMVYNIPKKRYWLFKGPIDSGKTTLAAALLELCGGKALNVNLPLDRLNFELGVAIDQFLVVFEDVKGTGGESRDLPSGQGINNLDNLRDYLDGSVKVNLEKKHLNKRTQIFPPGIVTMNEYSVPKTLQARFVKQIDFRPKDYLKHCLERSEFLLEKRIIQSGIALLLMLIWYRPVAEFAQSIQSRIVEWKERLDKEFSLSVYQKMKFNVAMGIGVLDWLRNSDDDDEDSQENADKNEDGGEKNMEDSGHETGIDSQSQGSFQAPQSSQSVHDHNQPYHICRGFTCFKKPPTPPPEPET
# Chain of Induced myeloid leukemia cell differentiation protein Mcl-1 (Q07820 whole entry): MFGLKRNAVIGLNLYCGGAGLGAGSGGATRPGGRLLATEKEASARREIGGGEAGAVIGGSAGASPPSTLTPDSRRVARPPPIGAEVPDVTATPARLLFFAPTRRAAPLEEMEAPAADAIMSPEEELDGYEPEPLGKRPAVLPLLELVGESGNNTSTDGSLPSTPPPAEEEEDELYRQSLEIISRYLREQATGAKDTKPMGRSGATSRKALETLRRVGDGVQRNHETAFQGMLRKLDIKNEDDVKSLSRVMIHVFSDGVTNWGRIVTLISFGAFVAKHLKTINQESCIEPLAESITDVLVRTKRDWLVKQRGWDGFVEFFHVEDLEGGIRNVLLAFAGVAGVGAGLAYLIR
# T4 sequence (P11940 whole entry): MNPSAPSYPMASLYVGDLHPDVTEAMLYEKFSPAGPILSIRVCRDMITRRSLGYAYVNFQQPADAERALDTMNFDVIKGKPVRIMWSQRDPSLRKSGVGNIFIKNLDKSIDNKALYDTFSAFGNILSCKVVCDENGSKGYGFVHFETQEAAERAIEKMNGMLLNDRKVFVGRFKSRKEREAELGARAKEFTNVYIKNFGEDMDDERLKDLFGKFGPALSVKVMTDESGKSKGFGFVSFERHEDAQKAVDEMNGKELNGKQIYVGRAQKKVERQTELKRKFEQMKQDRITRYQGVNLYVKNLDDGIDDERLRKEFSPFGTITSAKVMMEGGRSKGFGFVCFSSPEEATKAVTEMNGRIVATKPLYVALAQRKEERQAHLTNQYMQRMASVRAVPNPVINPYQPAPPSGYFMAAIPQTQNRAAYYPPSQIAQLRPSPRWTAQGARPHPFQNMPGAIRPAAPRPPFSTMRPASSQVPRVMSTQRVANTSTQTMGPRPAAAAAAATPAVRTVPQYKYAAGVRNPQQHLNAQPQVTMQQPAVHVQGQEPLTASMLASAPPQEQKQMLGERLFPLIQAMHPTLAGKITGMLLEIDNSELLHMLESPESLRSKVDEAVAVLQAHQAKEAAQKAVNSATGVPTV
# Chain of Luciferin 4-monooxygenase (P08659 whole entry): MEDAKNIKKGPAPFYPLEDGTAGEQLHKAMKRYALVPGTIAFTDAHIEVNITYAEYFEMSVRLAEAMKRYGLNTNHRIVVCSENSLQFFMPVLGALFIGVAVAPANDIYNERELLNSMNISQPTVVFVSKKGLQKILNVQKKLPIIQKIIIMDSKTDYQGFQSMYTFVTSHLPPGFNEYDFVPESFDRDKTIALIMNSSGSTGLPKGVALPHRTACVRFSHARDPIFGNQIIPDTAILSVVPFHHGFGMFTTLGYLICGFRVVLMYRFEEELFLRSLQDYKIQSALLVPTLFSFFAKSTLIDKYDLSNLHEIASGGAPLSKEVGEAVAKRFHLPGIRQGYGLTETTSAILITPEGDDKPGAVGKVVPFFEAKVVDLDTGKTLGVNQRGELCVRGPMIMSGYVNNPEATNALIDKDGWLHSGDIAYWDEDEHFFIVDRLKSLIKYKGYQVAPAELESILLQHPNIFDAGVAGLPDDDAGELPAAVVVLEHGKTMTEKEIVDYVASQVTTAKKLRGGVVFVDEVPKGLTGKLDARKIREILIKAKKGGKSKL
# Chain of FAD-linked sulfhydryl oxidase ALR (P55789 whole entry): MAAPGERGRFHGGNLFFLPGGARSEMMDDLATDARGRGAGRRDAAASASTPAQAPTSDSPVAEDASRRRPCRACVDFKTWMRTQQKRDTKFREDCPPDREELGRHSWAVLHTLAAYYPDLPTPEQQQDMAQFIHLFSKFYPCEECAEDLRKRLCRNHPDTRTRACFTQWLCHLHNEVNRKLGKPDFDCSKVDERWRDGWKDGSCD
# Chain of Cytochrome P450 2D6 (P10635 whole entry): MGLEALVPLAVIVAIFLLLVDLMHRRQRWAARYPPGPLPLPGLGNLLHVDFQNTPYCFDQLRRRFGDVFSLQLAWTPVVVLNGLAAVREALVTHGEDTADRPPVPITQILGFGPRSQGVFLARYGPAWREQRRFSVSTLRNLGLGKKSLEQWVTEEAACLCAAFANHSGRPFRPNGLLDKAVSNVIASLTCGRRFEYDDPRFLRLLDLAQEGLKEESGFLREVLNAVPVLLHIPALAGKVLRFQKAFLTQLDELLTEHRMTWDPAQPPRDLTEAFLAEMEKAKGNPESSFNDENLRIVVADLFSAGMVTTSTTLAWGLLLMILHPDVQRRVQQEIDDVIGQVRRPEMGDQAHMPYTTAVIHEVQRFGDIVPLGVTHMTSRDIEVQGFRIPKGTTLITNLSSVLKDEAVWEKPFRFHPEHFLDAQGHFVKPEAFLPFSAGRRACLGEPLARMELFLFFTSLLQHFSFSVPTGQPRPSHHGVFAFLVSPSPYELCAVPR
structure (smiles),measurement,setting,value
C=CCNC(S)=NNC(=O)c1cc(O)ccc1O,IC50,Large T antigen,> 100 µM (active)
CCC(CO)n1c(SCc2cc(=O)oc3cc(C)ccc23)nc2ccccc2c1=O (stereo not given),IC50,Coagulation factor XII,> 50 µM (inactive)
O=C1NC(=O)N(Cc2ccccc2)C(=O)/C1=C/Nc1ccc(CN2CCOCC2)cc1,EC50,[1],> 300 µM (not active)
same,EC50,[2],> 300 µM (not active)
Cc1cc(O)c(C(C)C)cc1N=C1CSC(=O)N1,EC50,[1],34.6 µM (active)
same,EC50,[2],38.9 µM (active)
CCc1ccc(C(N)=S)cc1,IC50,[3],> 66 µM (inactive)
same,IC50,[4],> 66 µM (inactive)
O=C(O)CCC(=O)Nc1ccc(SSc2ccc(NC(=O)CCC(=O)O)cc2)cc1,IC50,Large T antigen,5.39 µM (active)
Oc1nc(CN2CC=C(c3ccccc3)CC2)nc2cc(C(F)(F)F)ccc12,AC50,HEK293,> 350 µM (inactive)
same,EC50,[5],> 112 µM (not active)
same,EC50,[6],> 112 µM (not active)
Cc1ccc(OCC(=O)Nc2nnn(C)n2)c(C)c1,IC50,Coagulation factor XII,> 50 µM (inactive)
N#Cc1c(-c2ccco2)cc(-c2cccnc2)nc1N,IC50,H9c2,> 79 µM (inactive)
CN(C)c1ccc(NC(=O)c2ccc3[nH]cnc3c2)cc1,IC50,Large T antigen,6.99 µM (active)
NNC(=O)c1cc(-c2ccccc2)sc1N,IC50,Large T antigen,17.2 µM (active)
same,AC50,[7],8.45 µM (active)
Cc1sc(NC(=O)CSc2nnnn2C2CCCC2)c(C#N)c1C,IC50,Coagulation factor XII,> 50 µM (inactive)
COc1cc(-c2cc(C(=O)OCC(=O)NC3CC3)c3ccccc3n2)cc(OC)c1OC,IC50,H9c2,> 79 µM (inactive)
COc1ccc(C(=O)Nc2nnc(SCC(=O)NC3CC3)s2)cc1,AC50,HEK293,4.42 µM (active)
COc1ccc(/C=N/NC(=O)c2cc[nH]n2)cc1COc1ccc(Cl)cc1,AC50,Cytochrome P450 2D6,25.1 µM (inconclusive)
same,IC50,H9c2,> 79 µM (inactive)
Cc1c(NC(=O)CSc2ccc(Cl)cc2)cccc1-c1nc2cc(Cl)ccc2o1,EC50,[1],> 300 µM (not active)
same,EC50,[2],> 300 µM (not active)
CCCOc1cccc(C2C(C(=O)c3ccco3)=C(O)C(=O)N2c2nnc(C)s2)c1 (stereo not given),EC50,[1],82.7 µM (active)
same,EC50,[2],51.9 µM (active)
Cc1ccc(C(=O)Nc2cccc(C(=O)N/N=C/c3ccccc3F)c2)cc1,AC50,HEK293,7.43 µM (active)
COc1ccc(-c2ccc3c(n2)sc2c(=O)[nH]c(=O)[nH]c23)cc1OC,IC50,[8],1.76 µM (active)
COc1ccccc1C(N)=S,IC50,[3],> 66 µM (inactive)
same,IC50,[4],> 66 µM (inactive)
O=C(Oc1ccc(N(Cc2cccs2)C2=NS(=O)(=O)c3ccccc32)cc1)c1ccccc1Cl,IC50,H9c2,23.2 µM (active)
C=CCn1c(N)c(C(=O)OCC)sc1=S,IC50,[3],> 66 µM (inactive)
same,IC50,[4],> 66 µM (inactive)
Cc1ccccc1NP(=O)(Oc1ccccc1F)Oc1ccccc1F,IC50,H9c2,> 79 µM (inactive)
CCn1c(SCC(=O)Nc2ccc(OC)cc2)nc2nc3c(cc2c1=O)CCCC3,AC50,INS1,38.7 µM (active)
COCCn1/c(=N/C(=O)c2nc3ccccc3s2)sc2cc(S(C)(=O)=O)ccc21,IC50,H9c2,> 79 µM (inactive)
O=C(Nc1ccc(O)cc1)/C(=C\c1cccs1)NC(=O)c1ccccc1,IC50,Large T antigen,23 µM (active)
O=C(Cn1[nH]c(=O)c2ccccc2c1=O)NC1CCN(Cc2ccccc2)CC1,IC50,H9c2,> 79 µM (inactive)
O=S(=O)(NC(=S)NC1CCCCC1)c1cccs1,IC50,[3],> 66 µM (inactive)
same,IC50,[4],> 66 µM (inactive)
COc1cc(-c2cc(=O)c3ccc(O)cc3o2)cc(OC)c1OC,IC50,[3],> 66 µM (inactive)
same,IC50,[4],33.7 µM (inactive)
COc1ccccc1NC(=O)c1cc(-c2ccc(OC)c(OC)c2)nc2ccccc12,IC50,H9c2,> 79 µM (inactive)
CCN(CC)C(=O)c1cc2c(=O)c3cc(Cl)ccc3oc2nc1C,EC50,[1],> 300 µM (not active)
same,EC50,[2],> 300 µM (not active)
CCOC(=O)c1[nH]c2ccccc2c1N=C(S)Nc1cccc(C)c1C,IC50,Large T antigen,35.1 µM (active)
same,IC50,[9],95.4 µM (active)
same,IC50,[3],> 66 µM (inactive)
same,IC50,[4],> 66 µM (inactive)
O=C(O)CCc1nc(-c2cccs2)no1,IC50,[8],17.6 µM (not active)
CN(C)c1ccc(C(CNC(=O)c2ccc(F)cc2)c2c[nH]c3ccccc23)cc1 (stereo not given),IC50,[8],3.08 µM (not active)
COCc1cc(O)nc(SCCS(=O)(=O)c2ccc(Cl)cc2Cl)n1,IC50,[3],> 66 µM (inactive)
same,IC50,[4],> 66 µM (inactive)
same,EC50,[10],> 260 µM (inactive)
CCN(CC)c1ccc(C2C(C(=O)OC(C)C)C(=O)CC(C)(O)C2C(=O)OC(C)C)cc1 (stereo not given),IC50,H9c2,> 79 µM (inactive)
CC(=O)Nc1ccc(SCC(=O)NC(=O)c2ccccc2Br)cc1,IC50,[3],> 66 µM (inactive)
same,IC50,[4],> 66 µM (inactive)
COC(=O)C1CCN(C(=O)c2cc(-c3ccc(Cl)s3)nc3ccccc23)CC1,AC50,INS1,3.98 µM (active)
CNc1nc2cc([N+](=O)[O-])c([N+](=O)[O-])cc2nc1NC,AC50,INS1,0.32 µM (active)
Cc1ccccc1NC(=O)COc1cccc2c1CCNC2=O,IC50,H9c2,13.9 µM (active)
